# In patent US20150105252A1, “SUBSTITUTED PYRAZOLES AS HERBICIDES” (E I DU PONT DE NEMOURS AND COMPANY, priority 2013, published 2015):
# How the values were obtained:
# ryegrass, Italian = test: Test C postemergence; format: in vivo, Lolium multiflorum; settings: postemergence
# Method in brief: (§1)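 Postemergence values come from plants sprayed at the 1- to 4-leaf stage (2–18 cm) in peat moss–vermiculite medium; preemergence values from seeds treated in a loam–sand blend. Both evaluated visually against controls after 13–15 greenhouse days, scale 0–100.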
# morningglory [1] = test: Test A postemergence; format: in vivo, Ipomoea spp.
# Method in brief: (§2)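 Pre- and postemergence greenhouse test; loam+sand; cpd in non-phytotox. solvent/surfactant; post at 1–2 leaf, 2–10 cm; visual score ~10 d, 0 = none, 100 = complete control.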
# corn = test: Test A postemergence; format: in vivo, Zea mays
# Method in brief: as §2
# nutsedge, yellow = test: Test C preemergence; format: in vivo, Cyperus esculentus; settings: preemergence; for Plant response rating, Nutsedge, Yellow: 125 g ai/ha, scale 0 to 100, 0 = no effect, 100 = complete control
# Method in brief: as §1
# crabgrass, large [2] = test: Test C preemergence; format: in vivo, Digitaria sanguinalis; settings: preemergence; for Plant response rating, Crabgrass, Large: 125 g ai/ha, scale 0 to 100, 0 = no effect, 100 = complete control
# Method in brief: as §1
# barnyardgrass [3] = test: Test C preemergence; format: in vivo, Echinochloa crus-galli; settings: preemergence; for Plant response rating, Barnyardgrass: 125 g ai/ha, scale 0 to 100, 0 = no effect, 100 = complete control
# Method in brief: as §1
# barnyardgrass [4] = test: Test A preemergence; format: in vivo, Echinochloa crus-galli; settings: preemergence; for Barnyardgrass plant response rating (0 to 100 scale, 0 is no effect, 100 is complete control): 125 g ai/ha, visual injury approx. 10 days after treatment; for Barnyardgrass plant response rating: 500 g ai/ha, visual injury after approx. 10 days, 0 to 100 scale (0 no effect, 100 complete control)
# Method in brief: as §2
# oat, wild = test: Test C postemergence; format: in vivo, Avena fatua; settings: for Plant response rating (scale of 0 to 100 where 0 is no effect and 100 is complete control), Oat, Wild: Postemergence, 31 g ai/ha, visually evaluated after 13 to 15 days; for Oat, Wild plant response rating / Plant response rating, Oat, Wild: postemergence; for Oat, Wild plant response rating: 62 g ai/ha, scale 0 to 100
# Method in brief: as §1
# barnyardgrass [5] = test: Test A postemergence; format: in vivo, Echinochloa crus-galli
# Method in brief: as §2
# kochia = test: Test C postemergence; format: in vivo, Kochia scoparia; settings: for Plant response rating (scale of 0 to 100 where 0 is no effect and 100 is complete control), Kochia: Postemergence, 31 g ai/ha, visually evaluated after 13 to 15 days; for Kochia plant response rating / Plant response rating, Kochia: postemergence; for Kochia plant response rating: 62 g ai/ha, scale 0 to 100
# Method in brief: as §1
# oilseed rape = test: Test C postemergence; format: in vivo, Brassica napus; settings: postemergence; for Oilseed Rape plant response rating: 62 g ai/ha, scale 0 to 100
# Method in brief: as §1
# crabgrass, large [6] = test: Test A postemergence; format: in vivo, Digitaria sanguinalis
# Method in brief: as §2
# velvetleaf = test: Test C preemergence; format: in vivo, Abutilon theophrasti; settings: preemergence; for Plant response rating, Velvetleaf: 125 g ai/ha, scale 0 to 100, 0 = no effect, 100 = complete control
# Method in brief: as §1
# morningglory [7] = test: Test C preemergence; format: in vivo, Ipomoea coccinea; settings: preemergence; for Plant response rating, Morningglory: 125 g ai/ha, scale 0 to 100, 0 = no effect, 100 = complete control
# Method in brief: as §1
# soybean = test: Test C postemergence; format: in vivo, Glycine max; settings: postemergence; for Plant response rating, Soybean: 250 g ai/ha, scale 0 to 100 (0 no effect, 100 complete control); for Soybean plant response rating: 125 g ai/ha, scale 0 to 100, 0 no effect, 100 complete control
# Method in brief: as §1
# pigweed = test: Test A postemergence; format: in vivo, Amaranthus retroflexus
# Method in brief: as §2
# [8] = 250 g ai/ha, scale 0 to 100 (0 no effect, 100 complete control)
# [9] = 125 g ai/ha, scale 0 to 100, 0 no effect, 100 complete control
# [10] = Postemergence, 500 g ai/ha, 0 to 100 scale (0 no effect, 100 complete control)
# [11] = postemergence, 125 g ai/ha, about 10 days, visual rating on 0 to 100 scale (0 no effect, 100 complete control)
# [12] = 31 g ai/ha, visual rating, scale 0 to 100 (0 no effect, 100 complete control), 13 to 15 days
# [13] = 62 g ai/ha, scale 0 to 100 (0 no effect, 100 complete control), 13 to 15 days
# [14] = 250 g ai/ha, scale 0 to 100, 0 is no effect, 100 is complete control
# [15] = Postemergence, 125 g ai/ha, 0 to 100 scale, 0 no effect, 100 complete control
smiles,measurement,setting,value
CCCNC(=O)c1cc(CCF)n(Cc2ccnc(C(F)(F)F)c2)n1 [Compound 177],"Plant response rating, Ryegrass, Italian","ryegrass, Italian; [8]",5
same,"Plant response rating, Ryegrass, Italian","ryegrass, Italian; [9]",5
same,Morningglory plant response rating,morningglory [1]; [10],100
same,Morningglory plant response rating,morningglory [1]; [11],100
same,Corn plant response rating,corn; [10],100
same,Corn plant response rating,corn; [11],90
same,"Nutsedge, Yellow plant response rating","nutsedge, yellow; [12]",5
same,"Nutsedge, Yellow plant response rating","nutsedge, yellow; [13]",60
same,"Plant response rating, Nutsedge, Yellow","nutsedge, yellow; 13 to 15 days",80
same,"Nutsedge, Yellow plant response rating","nutsedge, yellow; [14]",95
same,"Crabgrass, Large plant response rating","crabgrass, large [2]; [12]",100
same,"Crabgrass, Large plant response rating","crabgrass, large [2]; [13]",100
same,"Plant response rating, Crabgrass, Large","crabgrass, large [2]; 13 to 15 days",100
same,"Crabgrass, Large plant response rating","crabgrass, large [2]; [14]",100
same,Barnyardgrass plant response rating,barnyardgrass [3]; [12],65
same,Barnyardgrass plant response rating,barnyardgrass [3]; [13],100
same,"Plant response rating, Barnyardgrass",barnyardgrass [3]; 13 to 15 days,100
same,Barnyardgrass plant response rating,barnyardgrass [3]; [14],100
same,"Barnyardgrass plant response rating (0 to 100 scale, 0 is no effect, 100 is complete control)",barnyardgrass [4],100
same,Barnyardgrass plant response rating,barnyardgrass [4],100
same,"Plant response rating (scale of 0 to 100 where 0 is no effect and 100 is complete control), Oat, Wild","oat, wild",5
same,"Oat, Wild plant response rating","oat, wild",5
same,"Plant response rating, Oat, Wild","oat, wild; [8]",40
same,"Plant response rating, Oat, Wild","oat, wild; [9]",15
same,Barnyardgrass plant response rating,barnyardgrass [5]; [10],100
same,Barnyardgrass plant response rating,barnyardgrass [5]; [11],100
same,"Plant response rating (scale of 0 to 100 where 0 is no effect and 100 is complete control), Kochia",kochia,60
same,Kochia plant response rating,kochia,85
same,"Plant response rating, Kochia",kochia; [8],90
same,"Plant response rating, Kochia",kochia; [9],90
same,Oilseed Rape plant response rating,oilseed rape,50
same,"Plant response rating, Oilseed Rape",oilseed rape; [8],70
same,"Plant response rating, Oilseed Rape",oilseed rape; [9],60
same,"Crabgrass, Large plant response rating","crabgrass, large [6]; [10]",100
same,"Crabgrass, Large plant response rating","crabgrass, large [6]; [11]",100
same,Velvetleaf plant response rating,velvetleaf; [12],0
same,Velvetleaf plant response rating,velvetleaf; [13],35
same,"Plant response rating, Velvetleaf",velvetleaf; 13 to 15 days,50
same,Velvetleaf plant response rating,velvetleaf; [14],100
same,Morningglory plant response rating,morningglory [7]; [12],25
same,Morningglory plant response rating,morningglory [7]; [13],95
same,"Plant response rating, Morningglory",morningglory [7]; 13 to 15 days,100
same,Morningglory plant response rating,morningglory [7]; [14],100
same,"Plant response rating, Soybean",soybean,95
same,Soybean plant response rating,soybean,90
same,Pigweed plant response rating,pigweed; [10],100
same,Pigweed plant response rating,pigweed; [11],100
CCCc1cc(C(=O)NC(C)C)nn1Cc1ccnc(C(F)(F)F)c1 [Compound 186],"Plant response rating, Ryegrass, Italian","ryegrass, Italian; [8]",60
same,"Plant response rating, Ryegrass, Italian","ryegrass, Italian; [9]",10
same,Morningglory plant response rating,morningglory [1]; [15],0
same,Morningglory plant response rating,morningglory [1]; [10],100
same,Corn plant response rating,corn; [10],100
same,Corn plant response rating,corn; [11],100
same,"Nutsedge, Yellow plant response rating","nutsedge, yellow; [12]",10
same,"Nutsedge, Yellow plant response rating","nutsedge, yellow; [13]",60
same,"Plant response rating, Nutsedge, Yellow","nutsedge, yellow; 13 to 15 days",85
same,"Nutsedge, Yellow plant response rating","nutsedge, yellow; [14]",98
same,"Crabgrass, Large plant response rating","crabgrass, large [2]; [12]",100
same,"Crabgrass, Large plant response rating","crabgrass, large [2]; [13]",100
same,"Plant response rating, Crabgrass, Large","crabgrass, large [2]; 13 to 15 days",100
same,"Crabgrass, Large plant response rating","crabgrass, large [2]; [14]",100
same,Barnyardgrass plant response rating,barnyardgrass [3]; [12],100
same,Barnyardgrass plant response rating,barnyardgrass [3]; [13],100
same,"Plant response rating, Barnyardgrass",barnyardgrass [3]; 13 to 15 days,100
same,Barnyardgrass plant response rating,barnyardgrass [3]; [14],100
same,"Barnyardgrass plant response rating (0 to 100 scale, 0 is no effect, 100 is complete control)",barnyardgrass [4],100
same,Barnyardgrass plant response rating,barnyardgrass [4],100
same,"Plant response rating (scale of 0 to 100 where 0 is no effect and 100 is complete control), Oat, Wild","oat, wild",10
same,"Oat, Wild plant response rating","oat, wild",35
same,"Plant response rating, Oat, Wild","oat, wild; [8]",80
same,"Plant response rating, Oat, Wild","oat, wild; [9]",35
same,Barnyardgrass plant response rating,barnyardgrass [5]; [10],90
same,Barnyardgrass plant response rating,barnyardgrass [5]; [11],90
same,"Plant response rating (scale of 0 to 100 where 0 is no effect and 100 is complete control), Kochia",kochia,80
same,Kochia plant response rating,kochia,85
same,"Plant response rating, Kochia",kochia; [8],95
same,"Plant response rating, Kochia",kochia; [9],90
same,Oilseed Rape plant response rating,oilseed rape,60
same,"Plant response rating, Oilseed Rape",oilseed rape; [8],85
same,"Plant response rating, Oilseed Rape",oilseed rape; [9],80
same,"Crabgrass, Large plant response rating","crabgrass, large [6]; [10]",90
same,"Crabgrass, Large plant response rating","crabgrass, large [6]; [11]",90
same,Velvetleaf plant response rating,velvetleaf; [12],100
same,Velvetleaf plant response rating,velvetleaf; [13],100
same,"Plant response rating, Velvetleaf",velvetleaf; 13 to 15 days,100
same,Velvetleaf plant response rating,velvetleaf; [14],100
same,Morningglory plant response rating,morningglory [7]; [12],98
same,Morningglory plant response rating,morningglory [7]; [13],70
same,"Plant response rating, Morningglory",morningglory [7]; 13 to 15 days,100
same,Morningglory plant response rating,morningglory [7]; [14],100
same,"Plant response rating, Soybean",soybean,95
same,Soybean plant response rating,soybean,95
same,Pigweed plant response rating,pigweed; [15],60
same,Pigweed plant response rating,pigweed; [10],100
CCCNC(=O)c1cc(OCC)n(Cc2ccnc(C(F)(F)F)c2)n1 [Compound 187],"Plant response rating, Ryegrass, Italian","ryegrass, Italian; [8]",30
same,"Plant response rating, Ryegrass, Italian","ryegrass, Italian; [9]",5
same,Morningglory plant response rating,morningglory [1]; [15],40
same,Morningglory plant response rating,morningglory [1]; [10],100
same,Corn plant response rating,corn; [10],100
same,Corn plant response rating,corn; [11],80
same,"Nutsedge, Yellow plant response rating","nutsedge, yellow; [12]",25
same,"Nutsedge, Yellow plant response rating","nutsedge, yellow; [13]",60
same,"Plant response rating, Nutsedge, Yellow","nutsedge, yellow; 13 to 15 days",85
same,"Nutsedge, Yellow plant response rating","nutsedge, yellow; [14]",98
same,"Crabgrass, Large plant response rating","crabgrass, large [2]; [12]",100
same,"Crabgrass, Large plant response rating","crabgrass, large [2]; [13]",100
same,"Plant response rating, Crabgrass, Large","crabgrass, large [2]; 13 to 15 days",100
same,"Crabgrass, Large plant response rating","crabgrass, large [2]; [14]",100
same,Barnyardgrass plant response rating,barnyardgrass [3]; [12],95
same,Barnyardgrass plant response rating,barnyardgrass [3]; [13],100
same,"Plant response rating, Barnyardgrass",barnyardgrass [3]; 13 to 15 days,100
same,Barnyardgrass plant response rating,barnyardgrass [3]; [14],100
same,"Barnyardgrass plant response rating (0 to 100 scale, 0 is no effect, 100 is complete control)",barnyardgrass [4],90
same,Barnyardgrass plant response rating,barnyardgrass [4],100
same,"Plant response rating (scale of 0 to 100 where 0 is no effect and 100 is complete control), Oat, Wild","oat, wild",10
same,"Oat, Wild plant response rating","oat, wild",15
same,"Plant response rating, Oat, Wild","oat, wild; [8]",50
same,"Plant response rating, Oat, Wild","oat, wild; [9]",30
same,Barnyardgrass plant response rating,barnyardgrass [5]; [10],90
same,Barnyardgrass plant response rating,barnyardgrass [5]; [11],90
same,"Plant response rating (scale of 0 to 100 where 0 is no effect and 100 is complete control), Kochia",kochia,85
same,Kochia plant response rating,kochia,90
same,"Plant response rating, Kochia",kochia; [8],90
same,"Plant response rating, Kochia",kochia; [9],90
same,Oilseed Rape plant response rating,oilseed rape,50
same,"Plant response rating, Oilseed Rape",oilseed rape; [8],80
same,"Plant response rating, Oilseed Rape",oilseed rape; [9],75
same,"Crabgrass, Large plant response rating","crabgrass, large [6]; [10]",90
same,"Crabgrass, Large plant response rating","crabgrass, large [6]; [11]",90
same,Velvetleaf plant response rating,velvetleaf; [12],95
same,Velvetleaf plant response rating,velvetleaf; [13],100
same,"Plant response rating, Velvetleaf",velvetleaf; 13 to 15 days,100
same,Velvetleaf plant response rating,velvetleaf; [14],100
same,Morningglory plant response rating,morningglory [7]; [12],85
same,Morningglory plant response rating,morningglory [7]; [13],100
same,"Plant response rating, Morningglory",morningglory [7]; 13 to 15 days,100
same,Morningglory plant response rating,morningglory [7]; [14],100
same,"Plant response rating, Soybean",soybean,98
same,Soybean plant response rating,soybean,95
same,Pigweed plant response rating,pigweed; [15],100
same,Pigweed plant response rating,pigweed; [10],90
